Source: patent US20250049680A1, “COMPOSITIONS AND METHODS FOR TREATING DENTIN CARIES” (Rutgers, The State University of New Jersey, priority 2023, published 2025)
“Also recorded” adds a separate entry of the source. Marks after values point to notes of the source that are not given here.

Tests used:
[1] = Diametral tensile strength (DTS) of fortified dentin specimens after pH cycling; design: species or system human; conditions: for Diametral tensile strength: 5 min irrigation, 3-day pH cycling, mean ± SD; for DTS compared with the control group: in words; for DTS: pilot study, mean and standard deviation
Method: (§1) The column was further developed with 150 mL of one of five metal chloride solutions (0.1 mol/L AA2P salts of Mg, Zn, Mn, Sr, and Ba) to obtain a fraction containing new cationic L-ascorbic acid 2 phosphates with Mg, Zn, Mn, Sr, or Ba (FIG. 2). The prepared dentin specimens were randomly divided into six groups according to the solution used. The canal of each section was covered with an adhesive wax at the lower surface of the dentin specimen. Dentin specimens were then irrigated with one of five intervening solutions (AA2P salts of Mg (0.18 mM), Zn (5.3 μM), Mn (2.2×10^-8 M), Sr (1.8 μM), and Ba (1.9 μM)) for five minutes, with the saline solution used as the control group. The root canals were then flushed with 10 mL of distilled water immediately after each treatment to remove excess solution.
(§2) Fortified dentin specimens were subjected to a pH cycling procedure with repeated sequences of de/remineralization. Artificial caries were formed in the dentin specimens by a 1-hour immersion in 2.5 mL of demineralizing solution (1.5 mM CaCl2), 0.9 mM KH2PO4, 50 mM acetate buffer, pH 4.8). All lesions were then immersed in 2.5 mL of remineralizing solution (1.5 mM CaCl2, 0.9 mM KH2PO4, 20 mM HEPES [4-(2-hydroxyethyl)-1-piperazineethanesulfonic acid], pH 7.0) for 23 hours. During each solution change, the specimens were rinsed with deionized water for 10 seconds. The pH cycling process was performed at 37 degrees Celsius for three days.
The cylindrical specimens were positioned on a customized loading fixture to ensure that the 1.00 mm diameter loading pin aligned with the center axis of the dentin cylinder. Additionally, flat platens were used at both ends of the specimens to further ensure alignment with the testing surface. The specimens were then loaded horizontally into a universal testing machine, receiving a uniaxial load perpendicular to their long axes and parallel to the dentinal tubule orientation. A 1.00 mm diameter stainless steel plunger was used to apply downward pressure on the dentin surface at 1.0 mm/min crosshead speed. The maximal load applied to the plug at the time of dislodgement was recorded in Newtons, and the DTS was calculated using the formula
where F is the force in Newtons, D is the diameter of the cylinder, and h is the height in mm.

[2] = Solubility evaluation: weight loss of fortified dentin in butyric acid; design: species or system human; conditions: for Solubility (weight loss): 0.1 M butyric acid pH 4.4, 24 h, 37 C, mean ± SD; for weight loss: pilot study, mean and standard deviation
Method: as §1, with “solution. […]” for “solution.”
Fortified dentin specimens were completely immersed in 30 ml of 0.1 M butyric acid buffered with synthetic tissue fluid (pH 4.4) for 24 hours at 37 degrees C. and 100% relative humidity. After incubation, the specimens were removed from the acidic solutions, rinsed with distilled water to remove any residual acid, and dried. The weight of the dentin slices was measured by a digital microbalance before and after immersion into butyric acid, and the difference in weight provided information on dentin solubility.

[3] = Compressive strength of fortified dentin specimens after pH cycling; design: species or system human; conditions: for Compressive strength: 5 min irrigation, 3-day pH cycling, mean ± SD
Method: as §1, §2
The procedure for compressive strength testing was the same as for DTS testing except for the orientation of the specimens in the universal testing machine. The loads were applied uniaxially, parallel to the long axes of the specimens, and perpendicular to the dentinal tubule orientation until the specimens fractured. To calculate the compressive strength (MPa), the failure load (N) was divided by the area of the specimen in contact with the load

[4] = SEM-EDS color dot map, intensity of the metal in dentin; design: species or system human; conditions: for Unit of Intensity: EDS dot map at 1000x, 0 to 255 scale, mean ± SD; for color intensity: pilot study, mean and standard deviation
Method: as §1
Three specimens from each group were examined by SEM-EDS mode to observe the precipitation of metallic components on the dentin surface. All specimens were sectioned at a depth of 500 μm (exposure surface to fortifying solutions) using a diamond-coated disk under water cooling. The specimens' surfaces were then polished and sputter-coated with 10 nm gold and observed under an SEM. An EDS color dot map analysis was performed for each specimen at 1000× to evaluate the distribution of trace elements. The intensity of Mg, Zn, Mn, Sr, and Ba was measured using ImageJ software. The color maps were converted to binary, and their mean color intensity (0 to 255 scale) was recorded as a unit of intensity (UI).

[5] = Surface microhardness of fortified dentin specimens after pH cycling; design: species or system human; conditions: for microhardness, rank among all the groups: in words
Method: as §1, §2
A Micro Met 5100 durometer microhardness tester was used to measure the hardness of the fortified dentin specimens after exposure to a caries inducing environment. Each dentin specimen was further divided into two sections. Three separate indentations were made in each section at depths of 100 μm and 500 μm from the pulp-dentin interface using a 300-g load with a dwell time of 20 seconds for each measurement. The indentations were then evaluated under an optical microscope, and the average length of their two diagonal lengths was used to determine the hardness. The average microhardness value of the indentations' results was considered representative of each depth in each specimen.

[6] = pH cycling model of artificial dentin caries; design: species or system human; conditions: in words
Method: as §2

[7] = Residual stress of treated dentin; conditions: 5 min treatment with AA2P salts
Method: After establishing that inorganic trace minerals (IoTM) were dysregulated in dentin, Applicant aimed to examine if extrinsic supplementation could enhance dentinal mechanical properties. Specimens were treated with L-ascorbic acid 2-phosphate (AA2P) salts of IoTM as a solute carrier for the elements for 5 minutes. The following findings were observed, as described below.
Cationic substitution may lead to changes in residual stress. Stress magnitude and distribution by can be measured using XRD (Mn X-ray source, 1 mm aperture) as well as by slitting crack compliance, a destructive mechanical strain release technique, using whole dentin disk samples. In the slitting method, a rectangular sample with a strain gauge applied to the back side will be wired to the electrical discharge machine to cut through a sample to measure strain relief. Finite element analysis can be used to create the stress profile through the depth of a sample. However, the technique's accuracy is limited at the surface. In contrast, XRD is best for surface measurements with very high accuracy. Data can be acquired using a sine-squared psi method to indicate residual stress, modulus, and Poisson ratio. […] Pit depths can be measured using a drop gauge. […] The residual stress in the surface and sub-surface of dentin apatite (as deep as […]) can be determined.

[8] = 100 and 500 μm depths combined, N=20

Structure (SMILES)	Diametral tensile strength [1]	DTS compared with the control group [1]	DTS [1]	Solubility (weight loss) [2]	weight loss [2]	Compressive strength [3]	Unit of Intensity ([4]; 500 μm depth)	color intensity [4]	Microhardness, Mean ([5]; 100 μM depth, N=10)	Microhardness, Mean ([5]; 500 μM depth, N=10)	Microhardness, Mean [5, 8]	protection against artificial caries lesions [6]	intensity / penetration, rank among all the groups ([4]; in words, 500 μm depth)	kind of residual stress generated [7]	compressive strength, rank among all the groups ([3]; in words)	microhardness, rank among all the groups ([5]; 100 μm depth)	microhardness, rank among all the groups ([5]; depths combined)
O=C1O[C@H]([C@@H](O)CO)C([O-])=C1OP(=O)([O-])[O-].O=C1O[C@H]([C@@H](O)CO)C([O-])=C1OP(=O)([O-])[O-].[Ba+2].[Ba+2].[Ba+2] [Ba]	61.56 ± 3.55 ^b Mpa	significantly higher DTS than the control group	61.96±4.47 Mpa	19.03 ± 2.99 ^a %	18.96±3.44%	157.96 ± 18.22 ^bc Mpa	5.57 ± 0.95 ^b Ui	5.55±1.34	45.00 kgf/mm^2	60.00 kgf/mm^2	52.50 kgf/mm^2	protected the dentin lesions	–	–	–	–	–
O=C1O[C@H]([C@@H](O)CO)C([O-])=C1OP(=O)([O-])[O-].O=C1O[C@H]([C@@H](O)CO)C([O-])=C1OP(=O)([O-])[O-].[Mg+2].[Mg+2].[Mg+2] [Mg]	56.93 ± 11.93 ^b Mpa	significantly higher DTS than the control group	57.60±15.21 Mpa	12.73 ± 4.92 ^a %	12.61±5.67%	148.97 ± 6.89 ^b Mpa	9.76 ± 1.52 ^a Ui	9.9±2.12	38.10 kgf/mm^2	57.20 kgf/mm^2	47.65 kgf/mm^2	–	highest intensity; also recorded: highest penetration	–	–	–	–
O=C1O[C@H]([C@@H](O)CO)C([O-])=C1OP(=O)([O-])[O-].O=C1O[C@H]([C@@H](O)CO)C([O-])=C1OP(=O)([O-])[O-].[Mn+2].[Mn+2].[Mn+2] [Mn]	56.07 ± 9.39 ^b Mpa	significantly higher DTS than the control group	55.80±11.56 Mpa	16.69 ± 3.97 ^a %	16.48±4.55%	148.03 ± 9.82 ^b Mpa	6.57 ± 0.95 ^b Ui	6.1±0.71	40.60 kgf/mm^2	58.80 kgf/mm^2	49.70 kgf/mm^2	–	–	–	–	–	–
O=C1O[C@H]([C@@H](O)CO)C([O-])=C1OP(=O)([O-])[O-].O=C1O[C@H]([C@@H](O)CO)C([O-])=C1OP(=O)([O-])[O-].[Zn+2].[Zn+2].[Zn+2] [Zn]	54.97 ± 10.12 ^b Mpa	significantly higher DTS than the control group	53.98±9.94 Mpa	12.88 ± 3.39 ^a %	12.55±3.82%	152.40 ± 15.07 ^b Mpa	7.1 ± 1.04 ^b Ui	7.35±1.34	40.30 kgf/mm^2	56.30 kgf/mm^2	48.30 kgf/mm^2	protected the dentin lesions	–	tensile residual stress	–	–	–
O=C1O[C@H]([C@@H](O)CO)C([O-])=C1OP(=O)([O-])[O-].O=C1O[C@H]([C@@H](O)CO)C([O-])=C1OP(=O)([O-])[O-].[Sr+2].[Sr+2].[Sr+2] [Sr]	60.01 ± 2.70 ^b Mpa	significantly higher DTS than the control group	59.99±1.91 Mpa	18.53 ± 3.74 ^a %	18.16±4.21%	174.01 ± 11.09 ^c Mpa	6.03 ± 0.67 ^b Ui	6.2±0.85	47.60 kgf/mm^2	59.10 kgf/mm^2	53.35 kgf/mm^2	–	–	compressive residual stress	highest	highest	highest
